Laboratory results: US7259161B2, “Compositions useful as inhibitors of JAK and other protein kinases” (Vertex Pharmaceuticals Incorporated, priority 2002, dated 2007)

Experiments:
[1] = molecular target: T1, JAK3 (Homo sapiens, UniProt P52333); test: JAK3 inhibition assay; assay type: biochemical; conditions: 2 μM ATP, ELISA read at 450 nm
T1 sequence (P52333 1-1124): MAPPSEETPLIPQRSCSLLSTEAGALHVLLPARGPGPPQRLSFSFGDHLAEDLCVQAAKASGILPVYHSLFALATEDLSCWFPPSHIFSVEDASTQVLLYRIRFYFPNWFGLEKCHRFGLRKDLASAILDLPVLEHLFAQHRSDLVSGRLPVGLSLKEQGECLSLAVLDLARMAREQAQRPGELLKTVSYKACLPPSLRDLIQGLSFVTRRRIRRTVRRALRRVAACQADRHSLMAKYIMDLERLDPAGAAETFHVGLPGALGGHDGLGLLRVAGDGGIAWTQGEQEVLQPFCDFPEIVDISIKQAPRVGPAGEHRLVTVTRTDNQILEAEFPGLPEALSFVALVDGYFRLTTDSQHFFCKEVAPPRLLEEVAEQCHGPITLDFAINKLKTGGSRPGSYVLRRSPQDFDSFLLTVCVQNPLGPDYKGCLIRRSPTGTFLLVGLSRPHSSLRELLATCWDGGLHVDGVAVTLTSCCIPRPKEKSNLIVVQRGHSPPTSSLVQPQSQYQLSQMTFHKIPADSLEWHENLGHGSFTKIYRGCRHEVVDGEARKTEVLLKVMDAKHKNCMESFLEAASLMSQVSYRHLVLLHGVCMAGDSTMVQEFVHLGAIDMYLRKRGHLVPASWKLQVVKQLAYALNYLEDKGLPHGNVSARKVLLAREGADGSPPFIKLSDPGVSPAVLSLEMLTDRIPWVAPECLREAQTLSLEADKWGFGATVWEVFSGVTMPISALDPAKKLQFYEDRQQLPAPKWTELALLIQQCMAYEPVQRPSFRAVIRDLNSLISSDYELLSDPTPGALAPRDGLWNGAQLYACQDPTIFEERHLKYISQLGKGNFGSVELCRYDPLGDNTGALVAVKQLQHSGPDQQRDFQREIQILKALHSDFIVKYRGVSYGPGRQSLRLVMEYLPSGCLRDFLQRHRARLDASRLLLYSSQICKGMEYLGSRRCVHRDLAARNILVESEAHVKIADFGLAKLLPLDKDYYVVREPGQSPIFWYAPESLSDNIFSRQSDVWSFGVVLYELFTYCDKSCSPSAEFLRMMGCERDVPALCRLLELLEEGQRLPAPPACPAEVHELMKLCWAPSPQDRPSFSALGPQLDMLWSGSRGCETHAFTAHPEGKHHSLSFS
Procedure: Compounds were screened for their ability to inhibit JAK3 according to the method described by G. R. Brown, et al, Bioorg. Med. Chem. Lett. 2000, vol. 10, pp 575–579 in the following manner. Into Maxisorb plates, previously coated at 4° C. with Poly (Glu, Ala, Tyr) 6:3:1 then washed with phosphate buffered saline 0.05% and Tween (PBST), was added 2 μM ATP, 5 MM MgCl2, and a solution of compound in DMSO. The reaction was started with JAK enzyme and the plates incubated for 60 minutes at 30° C. The plates were then washed with PBST, 100 μL HRP-Conjugated 4G10 antibody was added, and the plate incubated for 90 minutes at 30° C. The plate was again washed with PBST, 100 μL TMB solution is added, and the plates were incubated for another 30 minutes at 30° C. Sulfuric acid (100 μL of 1M) was added to stop the reaction and the plate is read at 450 nm to obtain the optical densities for analysis to determine Ki values.

[2] = molecular target: CDK-2/Cyclin A (Homo sapiens, UniProt P24941); test: CDK2 inhibition assay (coupled enzyme assay); assay type: biochemical; conditions: 100 μM ATP, 25 nM CDK-2/Cyclin A
Procedure: Compounds were screened for their ability to inhibit CDK-2/Cyclin A using a standard coupled enzyme assay (Fox et al (1998) Protein Sci 7, 2249). Reactions were carried out in 100 mM HEPES pH 7.5, 10 mM MgCl2, 25 mM NaCl, 1 mM DTT and 1.5% DMSO. Final substrate concentrations in the assay were 100 μM ATP (Sigma chemicals) and 100 μM peptide (American Peptide, Sunnyvale, Calif.). Assays were carried out at 30° C. and 25 nM CDK-2/Cyclin A. Final concentrations of the components of the coupled enzyme system were 2.5 mM phosphoenolpyruvate, 350 μM NADH, 30 μg/ml pyruvate kinase and 10 μg/ml lactate dehydrogenase.
An assay stock buffer solution was prepared containing all of the reagents listed above, with the exception of CDK-2/Cyclin A, DTT and the test compound of interest. 56 μl of the test reaction was placed in a 384 well plate followed by addition of 1 μl of 2 mM DMSO stock containing the test compound (final compound concentration 30 μM). The plate was preincubated for ˜10 minutes at 30° C. and the reaction initiated by addition of 10 μl of enzyme (final concentration 25 nM). Rates of reaction were obtained using a BioRad Ultramark plate reader (Hercules, Calif.) over a 5 minute read time at 30° C. Compounds showing >50% inhibition versus standard wells containing DMSO, but no compound, were titrated and IC50's determined using a similar protocol.

Ki [1] [nM]	Ki [2] [nM]	SMILES
< 5000	< 1000	NS(=O)(=O)c1ccc(Nc2nccc(-c3ccc4c(c3)NC(=O)CO4)n2)cc1 [IVa-23]
< 5000	< 1000	CN1C(=O)COc2ccc(-c3ccnc(Nc4ccc(S(N)(=O)=O)cc4)n3)cc21 [IVa-24]
